The values that follow come from patent publication US6436929B1 (Wyeth, priority 1999, dated 2002).

SMILES strings stand for the structures. Values joined by “and” are separate entries in the source; they are usually repeats but may differ in a detail not shown here. Equal values may be shown once.

Data set [1] relates to rat uterine decidualization. The data set is described as follows: Rat decidualization assay. Type of data set: in vivo. The note with it: s.c.; for Estimated average EC50: average over dose-response curves; for EC50: ovariectomized rats, uterine wet weight/decidual response, individual studies (Exp). As for the experimental part: The animals are treated once daily for seven days.
Uteri are removed and trimmed of fat.
Decidual response: [(D−C)/C]×100%

The next data set has as its target T1, human PR (Homo sapiens, UniProt P06401).
T1 construct: expressed in transfected cells; host or cells: CV-1 cells (electroporation with pLEM-hPR-B and pGL3-2xPRE-luciferase)
T1 sequence (P06401 1-933): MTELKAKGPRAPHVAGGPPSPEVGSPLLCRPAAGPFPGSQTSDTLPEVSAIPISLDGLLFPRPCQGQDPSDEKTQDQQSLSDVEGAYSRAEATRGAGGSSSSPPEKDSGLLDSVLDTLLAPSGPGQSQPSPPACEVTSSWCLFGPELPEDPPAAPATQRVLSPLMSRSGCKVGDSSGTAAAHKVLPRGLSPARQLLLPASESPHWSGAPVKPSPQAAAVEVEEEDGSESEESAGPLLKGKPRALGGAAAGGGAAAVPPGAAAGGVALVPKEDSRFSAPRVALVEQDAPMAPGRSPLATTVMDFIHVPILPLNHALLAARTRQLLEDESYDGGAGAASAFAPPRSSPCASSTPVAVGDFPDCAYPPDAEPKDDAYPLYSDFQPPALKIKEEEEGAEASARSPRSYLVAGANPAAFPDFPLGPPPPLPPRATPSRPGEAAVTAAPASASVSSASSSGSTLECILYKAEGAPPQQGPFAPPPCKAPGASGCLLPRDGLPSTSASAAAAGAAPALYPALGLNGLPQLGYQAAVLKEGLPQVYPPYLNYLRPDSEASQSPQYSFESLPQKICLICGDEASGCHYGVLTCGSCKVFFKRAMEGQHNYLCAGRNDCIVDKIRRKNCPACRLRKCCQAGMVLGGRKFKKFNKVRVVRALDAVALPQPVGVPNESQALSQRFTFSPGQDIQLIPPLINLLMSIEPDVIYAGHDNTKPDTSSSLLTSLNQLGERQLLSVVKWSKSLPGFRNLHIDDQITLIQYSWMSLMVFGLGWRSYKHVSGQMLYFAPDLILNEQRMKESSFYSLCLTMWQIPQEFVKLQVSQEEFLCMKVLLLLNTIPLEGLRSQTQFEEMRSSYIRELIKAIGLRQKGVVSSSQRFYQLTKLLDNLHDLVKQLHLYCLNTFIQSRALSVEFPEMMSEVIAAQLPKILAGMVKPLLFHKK
The data set is described as follows: PRE-luciferase assay in CV-1 cells co-transfected with human PR and PRE-luciferase plasmids. To be noted: agonist mode, PRE-luciferase in CV-1 cells, Table 1; read-out: hPR CV-1 EC50. It is filed as cell-based. As for the experimental part: The object of this assay is to determine a compound's progestational or antiprogestational potency based on its effect on PRE-luciferase reporter activity in CV-1 cells co-transfected with human PR and PRE-luciferase plasmids. The materials methods used in the assay are as follows.
Electroporation is carried out at 260 V and […] in a Biorad Gene Pulser II. After electroporation, cells are resuspended in growth medium and plated in 96-well plate at 40,000 cells/well in 200 μl. Following overnight incubation, the medium is changed to experimental medium Cells are then treated with reference or test compounds in experimental medium. […] Twenty-four hr. after treatment, the medium is discarded, cells are washed three times with D-PBS (GIBCO, BRL). Fifty μl of cell lysis buffer (Promega, Madison, Wis.) is added to each well and the plates are shaken for 15 min in a Titer Plate Shaker (Lab Line Instrument, Inc.).
Each treatment consists of at least 4 replicates. Log transformed data are used for analysis of variance and nonlinear dose response curve fitting for both agonist and antagonist modes. Huber weighting is used to downweight the effects of outliers. EC50 or IC50 values are calculated from the retransformed values.

The subject of the next data set is Ovulation. The data set is described as follows: Ovulation inhibition. It is filed as in vivo. The note with it: Table 1.
The test system of a further data set is T47D cells. The data set is described as follows: T47D cell proliferation assay (BrdU incorporation). To be noted: half-maximal increase in BrdU incorporation, individual studies (Exp). It is filed as cell-based. As for the experimental part:
The objective of this assay is the determination of progestational and antiprogestational potency by using a cell proliferation assay in T47D cells. A compound's effect on DNA synthesis in T47D cells is measured.
DMEM:F12(1:1) (GIBCO, BRL) supplemented with 10% (v/v) fetal bovine serum (not heat-inactivated), 100 U/ml penicillin, […], and 2 mM GlutaMax (GIBCO, BRL).
Minimum Essential Medium (MEM) (#51200-038GIBCO, BRL) phenol red-free supplemented with 0.5% charcoal stripped fetal bovine serum, 100 U/ml penicillin, […] streptomycin, and 2 mM GlutaMax (GIBCO, BRL). […]
At the end of BrdU labeling, the medium is removed and BrdU incorporation is measured using a cell proliferation ELISA kit (#RPN 250, Amersham Life Science) according to manufacturer's instructions. […] Then 25 μl of 1 M sulfuric acid is added to each well to stop color reaction and optical density is read in a plate reader at 450 nm within 5 min.
Square root-transformed data are used for analysis of variance and nonlinear dose response curve fitting for both agonist and antagonist modes. […] EC50 or IC50 values are calculated from the retransformed values. […]

For `C#C[C@]1(O)CC[C@H]2[C@@H]3CCC4=CC(=O)CC[C@@H]4[C@H]3C(=C)C[C@@]21CC` [3-Ketodesogestrel], in data set [1], the “Estimated average EC50” value was 0.10 mg/kg; the EC50 is 0.10 mg/kg and 0.06 mg/kg and 0.11 mg/kg. For orientation: melting point means the temperature of the solid-liquid transition. Compound `CC1(C)OC(=S)Nc2ccc(-c3cccc(Cl)c3)cc21` [Compound 1, 6-(3-Chlorophenyl)-4,4-dimethyl-1,4-dihydro-benzo[d][1,3]oxazin-2-thione] had a melting point of 183 to 184 °C. For the same compound, the EC50 at human PR was found to be 650 pM. In the case of `CC1(C)OC(=S)Nc2ccc(-c3csc(C#N)c3)cc21` [Compound 2, 4-(4,4-Dimethyl-2-thioxo-1,4-dihydro-2H-benzo[d][1,3]oxazin-6-yl)-thiophene-2-carbonitrile], the melting point fell in the range of 242 to 243 °C. Also, the “Ovulation Inhibition ED100” value in the data set with Ovulation turned out to be 1 mg/kg. The EC50 on human PR was found to be 300 pM.

Turning to `CC1(C)OC(=S)Nc2ccc(-c3cc(F)cc(C#N)c3)cc21` [Compound 3, 3-(4,4-Dimethyl-2-thioxo-1,4-dihydro-2H-benzo[d][1,3]oxazin-6-yl)-5-fluorobenzonitrile], at human PR, the EC50 is 5100 pM. `CCCCc1cc(C#N)sc1-c1ccc2c(c1)C(C)(C)OC(=S)N2` [Example 64, 4-Butyl-5-(4,4-dimethyl-2-thioxo-1,4-dihydro-2H-3,1-benzoxazin-6-yl)thiophene-2-carbonitrile] showed a melting point of 174 to 175 °C. In the case of `CC1(C)OC(=S)Nc2ccc(-c3cccc(Br)c3)cc21` [Example 65, 6-(3-Bromophenyl)-4,4-dimethyl-1,4-dihydro-2H-3,1-benzoxazine-2-thione], the melting point fell in the range of 191 to 193 °C. Turning to `CC1(C)OC(=S)Nc2ccc(-c3sccc3C#N)cc21` [Example 66, 2-(4,4-Dimethyl-2-thioxo-1,4-dihydro-2H-3,1-benzoxazin-6-yl)thiophene-3-carbonitrile], the melting point was in the range of 194 to 195 °C. Turning to `C#C[C@]1(O)CC[C@H]2[C@@H]3CCC4=CC(=O)CC[C@@H]4[C@H]3CC[C@@]21CC` [Levonorgestrel], in data set [1], the “Estimated average EC50” value is on record as 0.10 mg/kg; the EC50 was 0.08 mg/kg and 0.12 mg/kg and 0.09 mg/kg (2×). In the data set on T47D cells (Homo sapiens, T47D), `CC(=O)O[C@]1(C(C)=O)CC[C@H]2[C@@H]3C[C@H](C)C4=CC(=O)CC[C@]4(C)[C@H]3CC[C@@]21C` [MPA, medroxyprogesterone acetate] had an EC50 of 19 pM. Turning to `C[C@H](O)C(=O)[C@@]1(C)CC[C@H]2[C@@H]3CCC4=CC(=O)CCC4=C3CC[C@@]21C` [Trimegestone], the EC50 with T47D cells is 17 pM and 14 pM and 19 pM.
